Results as given in US11932657B2, “Heterocyclic compound” (priority 2018, dated 2024).

What was measured:
[1] = system: immortalized megakaryocyte line (SeV2-MKCL); test: Platelet production: static culturing of immortalized megakaryocyte line; type: cell-based; settings: compound final concentration 0.1 μM, static culturing 6 to 7 days, control (DMSO) set to 1; platelets = CD41, CD42b and CD42a-positive cells
Method: Test Example 2 (Platelet Production: Static Culturing)
The immortalized megakaryocyte line (SeV2-MKCL) obtained according to the method described in WO 2016/204256 was washed twice with D-PBS(−) and then cultured in medium not containing doxycycline to terminate forced expression. Culturing was implemented by seeding the cells at 1 mL/well in a 24-well plate (#662160 (Greiner Rio-One)) at a seeding density of 1×10^5 cells/mL followed by static culturing in the medium indicated below.
The medium was obtained by adding the following components to IMDM serving as the basal medium (concentrations indicate final concentrations).
Culturing was implemented under conditions of 37° C. and 5% CO2. At the same time, the compound of the present invention (final concentration 0.1 μM) or DMSO (control) was added and cultured for 6 to 7 days. Thereafter, the number of platelets (CD41, CD42b, and CD42a-positive cells) was measured. The measurement method was as shown below. The same procedure was performed with the control.
A portion of the culture supernatant was harvested 6 to 7 days after culturing to terminate gene expression, and suspended with the following antibodies to stain them. eFluor 450-labeled anti-CD42a antibody (#48-0428-42 (eBioscience)) PE-labeled anti-CD42b antibody (#303906 (BioLegend)) APC-labeled anti-CD41 antibody (#303710 (BioLegend)) The number of platelets was counted using FACSVerse manufactured by BD 30 minutes after the stain reaction. In the measurement of the number of platelets, the number of cells was corrected using Flow-count beads (#7547053 (Beckman Coulter)).
The number of platelets produced from one megakaryocyte cell was calculated based on the number of platelets in the sample obtained by the FACS measurement, and the result was defined as platelet production efficiency (PLT/MK) and used for evaluation of drug efficacy of the compound. In addition, the specific activity at the time when the platelet production efficiency of the control was set to 1 was indicated as fold increase.

[2] = molecular target: T1, aryl hydrocarbon receptor (AhR) (Homo sapiens, UniProt P35869); test: AhR reporter gene assay (aryl hydrocarbon receptor antagonist activity, DRE-Luc HepG2 cells, TCDD-stimulated luciferase); type: cell-based
T1 construct: DRE-Luc HepG2 cells subcultured in a 225 cm^2 flask; endogenous in cells; host or cells: HepG2 (ATCC), stably transfected with the reporter hCYP1A1/pGL4.27 (DRE-Luc HepG2)
T1 sequence (P35869 11-848): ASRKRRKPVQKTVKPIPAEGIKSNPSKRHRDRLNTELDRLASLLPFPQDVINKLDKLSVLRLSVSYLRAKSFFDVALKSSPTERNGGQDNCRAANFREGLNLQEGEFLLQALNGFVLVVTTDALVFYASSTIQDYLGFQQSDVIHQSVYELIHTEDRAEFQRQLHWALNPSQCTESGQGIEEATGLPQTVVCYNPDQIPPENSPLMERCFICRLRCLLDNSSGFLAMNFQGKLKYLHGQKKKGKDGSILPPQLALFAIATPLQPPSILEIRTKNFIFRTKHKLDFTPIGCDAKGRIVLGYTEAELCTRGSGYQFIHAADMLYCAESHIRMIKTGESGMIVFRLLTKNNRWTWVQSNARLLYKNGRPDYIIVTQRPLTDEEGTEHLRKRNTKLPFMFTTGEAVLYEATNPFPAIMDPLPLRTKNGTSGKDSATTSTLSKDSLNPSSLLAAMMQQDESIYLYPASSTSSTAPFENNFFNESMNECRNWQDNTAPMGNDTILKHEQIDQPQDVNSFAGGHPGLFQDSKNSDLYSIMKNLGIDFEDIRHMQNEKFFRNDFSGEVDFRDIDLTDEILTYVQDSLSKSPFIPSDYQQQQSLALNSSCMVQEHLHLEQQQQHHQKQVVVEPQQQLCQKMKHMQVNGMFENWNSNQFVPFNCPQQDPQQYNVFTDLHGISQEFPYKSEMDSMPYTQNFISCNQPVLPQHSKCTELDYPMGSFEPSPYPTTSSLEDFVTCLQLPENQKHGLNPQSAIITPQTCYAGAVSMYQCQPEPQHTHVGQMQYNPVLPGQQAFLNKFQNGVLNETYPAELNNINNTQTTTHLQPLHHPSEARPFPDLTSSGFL
Method: Test Example 1 (Aryl Hydrocarbon Receptor Antagonist Activity)
An expression vector, hCYP1A1/pGL4.27 was introduced into HepG2 cells (derived from American Type Culture Collection (ATCC)) that were seeded in 6-well plates (#3810-006 (Iwaki)) at 1.2×10^6 cells/well, using Lipofectamine 3000 (#100022050 (Invitrogen)). Referring to Garrion P M et al., Fundam Appl Toxicol, 30, 194 (1996), the vector hCYP1A1/pGL4.27 incorporated the human CYP1A1 promotor region including dioxin responsive element (DRE) region of the AhR binding region into the XhoI-BglII restriction enzyme site of pGL4.27 (#E8451 (Promega)). After 24 hours, medium-1 was replaced, and after 48 hours, the medium-1 containing hygromycin B (200 to 1000 μg/mL) was subjected to drug treatment. Culturing using the medium containing hygromycin B was continued for about 1 month to clone 24 clones showing drug resistance. A cell line showing high reporter activity was selected (DRE-Luc HepG2) from drug resistant lines using as an indicator luciferase activity (Dual-Glo Luciferase substrate, #E297A (Promega)) relative to an AhR agonist, 2,3,7,8-tetrachlorodibenzo-p-dioxin (TCDD) (#ED-901-B (CIL.)).
DRE-Luc HepG2 cells subcultured in a 225 cm^2 flask (#11-0005 (Iwaki)) were washed with PBS (#1419-144 (Gibco), Lot: 1896207), and thereto was added 8 mL of Trypsin-EDTA (0.05%) (#25300-054 (Gibco)). Thereafter, an excessive liquid was removed from the mixture, and the cells were stood at room temperature for 5 minutes. Thereto was added 10 mL of medium-2, the cells were recovered through a cell strainer (#352350 (Falcon), 70 μm), and the number of cells were then counted using a hemocytometer. A cell suspension was prepared at 3×10^5 cells/mL, 100 μL/well of the cell suspension was seeded into a 96-well white plate (#136101, F96 Microwell (Nunc)), and the cells were then cultured in a CO2 incubator (5% CO2, 37° C.). After 24 hours, the medium was aspirated, and thereto was added 100 μL of an assay medium solution including the compound of the present invention, and the cells were cultured in the CO2 incubator (5% CO2, 37° C.). After 24 hours, 11 μL of an assay medium solution including 5×10^−10 M TCDD (#ED-901-B (CIL.)) was added thereto and the cells were cultured in the CO2 incubator (5% CO2, 37° C.). After 24 hours, 50 μL of a reaction substrate (#E253B, Steady-Glo Luciferase substrate (Promega)) for Firefly Luciferase enzyme reaction was added to each well, and after 5 minute-shaking, the light emission intensity was measured with Wallac ARVO 1420sx (PerkinElmer).

Structure (SMILES) | Static (vs veh): fold increase of platelet production efficiency (PLT/MK) [1] | IC50 [2] [nM]
CC1(C)COc2nc3c(NCCc4ccc(O)c(-c5cc(F)cc(F)c5)c4)nc(-c4cncc(F)c4)nc3n21 [Example 12] | 7.6 | 12
Cc1ccccc1-c1cc(CCNc2nc(-c3cncc(F)c3)nc3c2nc2n3C(C)(C)CO2)ccc1O [Example 40] | 9.8 | 40
Cc1cncc(-c2nc(NCCc3ccc(O)c(-c4cccc(F)c4)c3)c3nc4n(c3n2)C(C)(C)CO4)c1 [Example 24] | 7.7 | 3.9
Cc1cncc(-c2nc(NCCc3c[nH]c4ccccc34)c3nc4n(c3n2)C(C)(C)CS4)c1 [Example 96] | 2.7 | 39
CC1(C)COc2nc3c(NCCc4ccc(O)c(-c5cccc(C#N)c5)c4)nc(-c4ccnc(F)c4)nc3n21 [Example 64] | 3.7 | 5.7
C[C@H]1CSc2nc3c(NCCc4ccc(O)c(-c5cccc(F)c5)c4)nc(-c4cncc(F)c4)nc3n21 [Example 31] | 5.9 | 0.46
CC1(C)COc2nc3c(NCCc4ccc(O)c(-c5c(F)cccc5F)c4)nc(-c4cncc(F)c4)nc3n21 [Example 44] | 3.4 | 3.5
C[C@@H]1CSc2nc3c(NCCc4ccc(O)c(-c5cccc(C#N)c5)c4)nc(-c4cncc(C#N)c4)nc3n21 [Example 61] | 3.9 | 0.71
CC1(C)COc2nc3c(NCCc4ccc(O)c(-c5cccc(C(F)(F)F)c5)c4)nc(-c4cncc(F)c4)nc3n21 [Example 16] | 10 | 3.9
Cc1cncc(-c2nc(NCCc3ccc(O)c(-c4cccc(F)c4)c3)c3nc4n(c3n2)C(C)(C)CS4)c1 [Example 27] | 6.0 | 0.35
CC1(C)COc2nc3c(NCCc4c[nH]c5ccccc45)nc(-c4cccc(F)c4F)nc3n21 [Example 86] | 4.4 | 21
CC1(C)COc2nc3c(NCCc4ccc(O)c(-c5ccccc5)c4)nc(-c4cncc(C#N)c4)nc3n21 [Example 46, 5-[4-[2-(4-hydroxy-3-phenylphenyl)ethylamino]-8,8-dimethyl-7H-purino[8,9-b][1,3]oxazol-2-yl]pyridine-3-carbonitrile] | 5.0 | 9.9
C[C@@H]1CSc2nc3c(NCCc4ccc(O)c(-c5cccc(F)c5)c4)nc(-c4cncc(F)c4)nc3n21 [Example 29] | 8.4 | 0.37
CC1(C)CSc2nc3c(NCCc4ccc(O)c(-c5cccc(C#N)c5)c4)nc(-c4cncc(F)c4)nc3n21 [Example 57] | 4.9 | 0.39
Cc1cccc(-c2cc(CCNc3nc(-c4cncc(F)c4)nc4c3nc3n4C(C)(C)CO3)ccc2O)c1 [Example 14] | 7.9 | 11
CC1(C)COc2nc3c(NCCc4c[nH]c5ccccc45)nc(-c4cc(F)ccc4F)nc3n21 [Example 87] | 3.9 | 38
CC1(C)COc2nc3c(NCCc4ccc(O)c(-c5cc(C#N)ccc5F)c4)nc(-c4cncc(C#N)c4)nc3n21 [Example 65] | 3.3 | 3.9
CN(C)C(=O)Cc1cccc(-c2cc(CCNc3nc(-c4cncc(F)c4)nc4c3nc3n4C(C)(C)CO3)ccc2O)c1 [Example 79] | 2.9 | 6.6
CC1(C)CSc2nc3c(NCCc4ccc(O)c(-c5ccccc5F)c4)nc(-c4ccc5nccn5c4)nc3n21 [Example 52] | 5.3 | 1.8
CC1(C)COc2nc3c(NCCc4ccc(O)c(-c5cccnc5)c4)nc(-c4cncc(F)c4)nc3n21 [Example 32, 4-[2-[[2-(5-fluoropyridin-3-yl)-8,8-dimethyl-7H-purino[8,9-b][1,3]oxazol-4-yl]amino]ethyl]-2-pyridin-3-ylphenol] | 6.8 | 29
CC1(C)COc2nc3c(NCCc4ccc(O)c(-c5cc(C#N)ccc5F)c4)nc(-c4cncc(F)c4)nc3n21 [Example 54] | 5.9 | 4.1
C[C@@H]1COc2nc3c(NCCc4ccc(O)c(-c5cncc(C#N)c5)c4)nc(-c4cncc(F)c4)nc3n21 [Example 77] | 3.5 | 9.2
Cc1cncc(-c2nc(NCCc3ccc(O)c(-c4ccccc4F)c3)c3nc4n(c3n2)C(C)(C)CO4)c1 [Example 23] | 8.0 | 9.6
CC1(C)C[S+]([O-])c2nc3c(NCCc4ccc(O)c(-c5ccccc5F)c4)nc(-c4cncc(F)c4)nc3n21 (stereo not shown) [Example 20] | 6.5 | 0.058
CC1(C)CSc2nc3c(NCCc4ccc(O)c(-c5cccc(F)c5)c4)nc(-c4cncc(F)c4)nc3n21 [Example 9] | 4.9 | 0.32
CC1(C)COc2nc3c(NCCc4ccc(O)c(-c5ccc(F)cc5F)c4)nc(-c4cncc(F)c4)nc3n21 [Example 42] | 4.8 | 6.1
